Measured values as given in PubChem BioAssay AID2060615 (Molecular Pharmacology Branch, DTP, NCI, 2025).
Where “and” joins values, the source holds several entries; their conditions need not be identical. Identical values can stand only once.

Test system: 496974-208-R-J2-PDC complex spheroids, growth % test/control
Assay: Anticancer human tumor 496974-208-R-J2-PDC patient-derived pancreatic carcinoma cell line growth inhibition [CLK]
Conditions: for viability, T/C: stronger effect = lower value; active = viability on the fitted dose curve at most 10% of control; inactive = the rest
From the text: A high-throughput screen of multi-cell type tumor spheroids was designed to identify active combinations of […] and targeted small molecules. Complex spheroids include a stromal component modeled by human endothelial cells (HUVEC) and fibroblasts modeled by human mesenchymal stem cells (MSCs). The concentration ranges selected for each drug and investigational agent were based upon clinically achievable concentrations if the clinical Cmax of the agent was known.
Compounds. The drugs and investigational agents: cirtuvivint (SM08502; NSC835563), CC-671 (NSC850746), vemurafenib (NSC761431), tapotoclax (NSC804041), sotorasib (NSC818433), adagrasib (NSC831453), MRTX-1133 (NSC836407), BAY2416964 (NSC825713), copanlisib (NSC816437), inavolisib (NSC800729), abemaciclib (NSC768073), osimertinib (NSC779217), entinostat (NSC756642), eltanexor (KPT-8602, NSC794443), venetoclax (NSC766270), ceralasertib (NSC777638), bortezomib (NSC756655), olaparib (NSC753686), talazoparib (NSC767125), alisertib (NSC759677), peposertib (NSC802822), gemcitabine (NSC613327), 5-fluorouracil (NSC19893), SN-38 (NSC673596), oxaliplatin (NSC266046), paclitaxel (NSC125973), and doxorubicin (NSC123127), were obtained from the National Cancer Institute (NCI) Developmental Therapeutics Program Chemical Repository. The FDA-approved anticancer drug set is available from the Developmental Therapeutics Program at https://dtp.cancer.gov/organization/dscb/obtaining/available plates.htm. […] The stock solutions were prepared in dimethyl sulfoxide (DMSO, Sigma-Aldrich, St. Louis, MO, cat. D2650), except for the platinum complexes which were prepared in saline (Quality Biological, Gaithersburg, MD, cat. 114-055-101), at 800-fold the tested concentration and stored at -70 degrees C prior to their use. All drugs and investigational agents were tested over a range starting from a high concentration at or near the clinical Cmax and decreasing in half-log increments. If the clinical Cmax for an agent had not been determined, the highest concentration tested was 10 microM.
Cell Culture. All cells were maintained in an incubator at 37 degrees C and 5% CO2 with 95% humidity. The PDC lines were cultured according to standard operating procedures established by the NCI PDMR. Briefly, all PDCs were thawed and cultured in Matrigel-coated flasks prepared with a working solution of 1X Ham's F-12 nutrient mix, without supplementation (Invitrogen, Waltham, MA, cat. 11765054), 100 U/mL penicillin-streptomycin (Invitrogen, cat. 15140122), and 2.5% Matrigel (Corning Inc., Corning, NY, cat. 354248) for the first three passages. The 947758-054-R-J2-PDC line was cultured in 6B/Colon 1A media, which includes advanced DMEM/F-12 (Thermo Fisher Scientific, cat. 12634028), 10 mM HEPES (Thermo Fisher Scientific, cat. 15630080), 1X GlutaMAX supplement (Thermo Fisher Scientific, cat. 35050061), 0.1 mg/mL primocin (InvivoGen, cat. ant-pm-2), 10% defined fetal bovine serum, heat inactivated (HyClone Laboratories Inc., cat. SH30070.03HI), 1.25 mM N-Acetyl-L-cysteine (Sigma-Aldrich, cat. A9165), 10 mM nicotinamide (Sigma-Aldrich, cat. N0636), 1X B-27 supplement (Thermo Fisher Scientific, cat. 17504044), 1X N-2 supplement (Thermo Fisher Scientific, cat. 17502048), and 10 microM Y-27632 dihydrochloride (Tocris Bioscience, cat. 1254). The 876862-298-R-J1-PDC was cultured in 6E media, which includes all 6B/Colon 1A media components plus 50% L-WRN conditioned media (ATCC, cat. CRL-3276), 50 ng/mL recombinant human EGF recombinant protein (hEGF; Thermo Fisher Scientific, cat. PHG0311), 10 ng/mL recombinant human fibroblast growth factor 10 (hGFG-10; PeproTech, cat. 100-26), 1 ng/mL recombinant human fibroblast growth factor 2 (hFGF-2; PeproTech, cat. 100-18B), and 1 µM prostaglandin E2 (PGE2; Tocris, cat. 2296). The 227483-062-R1-J1-PDC line was cultured in Panc media, containing all 6E components except hFGF-2, with the addition of 500 nM SB-431542 (Selleckchem, cat. S1067) and 10 nM gastrin (Tocris, cat. 3006). […]
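Note: spheroids exposed to the drugs for 7 days before readout.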
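Throughout, for viability, T/C: 100% = DMSO vehicle control wells.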

CC(=O)O[C@H]1C(=O)[C@@]2(C)[C@H]([C@H](OC(=O)c3ccccc3)[C@]3(O)C[C@H](OC(=O)[C@H](O)[C@@H](NC(=O)c4ccccc4)c4ccccc4)C(C)=C1C3(C)C)[C@]1(OC(C)=O)CO[C@@H]1C[C@@H]2O
< 0.0316 µM: IC50 (curve of compound)
inactive: viability, T/C (compound 0.0316 µM) 34.8% | viability, T/C (compound 0.1 µM) 28.4% | viability, T/C (compound 0.316 µM) 30.7% | viability, T/C (compound 1 µM) 27.8% | viability, T/C (compound 3.16 µM) 38.6% | viability, T/C (compound 10 µM) 29.1%

COc1ccc([C@@H](O)c2cc(-c3ncnc4cc(N5CCOCC5)ccc34)c(F)cc2Cl)nn1
4.92 µM and 7.03 µM: IC50 (curve of compound)
inactive: viability, T/C (compound 0.0316 µM) 104% | viability, T/C (compound 0.1 µM) 91.3% and 92.1% | viability, T/C (compound 0.316 µM) 87% and 103% | viability, T/C (compound 1 µM) 77.4% and 80.6% | viability, T/C (compound 3.16 µM) 64.5% and 71.6% | viability, T/C (compound 10 µM) 31.2% and 40.8%

COc1cccc2c1C(=O)c1c(O)c3c(c(O)c1C2=O)CC(O)(C(=O)CO)CC3OC1CC(N)C(O)C(C)O1 (stereo not drawn)
0.121 µM and 0.177 µM: IC50 (curve of compound)
active: viability, T/C (compound 1 µM) 2.82% and 3.77% | viability, T/C (compound 3.16 µM) 0.71% and 0.67% | viability, T/C (compound 10 µM) 1.39% and 0.57%
inactive: viability, T/C (compound 0.0316 µM) 73.2% and 85.7% | viability, T/C (compound 0.1 µM) 53.8% and 61.2% | viability, T/C (compound 0.316 µM) 26% and 39.9%

C=CC(=O)N1CCN(c2nc(=O)n(-c3c(C)ccnc3C(C)C)c3nc(-c4c(O)cccc4F)c(F)cc23)C(C)C1 (stereo not drawn) + CN1CCN(c2cc(C(=O)Nc3cc4cc(-c5cnn(C)c5)ccc4cn3)ccn2)CC1
< 0.0316 µM: IC50 (curve of first compound, second compound 0.316 µM) | IC50 (curve of first compound, second compound 1 µM) | IC50 (curve of first compound, second compound 3.16 µM) | IC50 (curve of first compound, second compound 10 µM)
inactive: viability, T/C (second compound 0.0316 µM, first compound 0.0316 µM) 102% | viability, T/C (second compound 0.0316 µM, first compound 0.1 µM) 114% | viability, T/C (second compound 0.0316 µM, first compound 0.316 µM) 104% | viability, T/C (second compound 0.0316 µM, first compound 1 µM) 120% | viability, T/C (second compound 0.0316 µM, first compound 3.16 µM) 128% | viability, T/C (second compound 0.0316 µM, first compound 10 µM) 99.9% | viability, T/C (second compound 0.1 µM, first compound 0.0316 µM) 90.2% | viability, T/C (second compound 0.1 µM, first compound 0.1 µM) 89.7% | viability, T/C (second compound 0.1 µM, first compound 0.316 µM) 89.2% | viability, T/C (second compound 0.1 µM, first compound 1 µM) 104% | viability, T/C (second compound 0.1 µM, first compound 3.16 µM) 101% | viability, T/C (second compound 0.1 µM, first compound 10 µM) 78.4%
active: viability, T/C (second compound 0.316 µM, first compound 0.0316 µM) 8.25% | viability, T/C (second compound 0.316 µM, first compound 0.1 µM) 9.83% | viability, T/C (second compound 0.316 µM, first compound 0.316 µM) 8.72% | viability, T/C (second compound 0.316 µM, first compound 1 µM) 10.3% | viability, T/C (second compound 0.316 µM, first compound 3.16 µM) 7.48% | viability, T/C (second compound 0.316 µM, first compound 10 µM) 5.87% | viability, T/C (second compound 1 µM, first compound 0.0316 µM) 0.39% | viability, T/C (second compound 1 µM, first compound 0.1 µM) 0.6% | viability, T/C (second compound 1 µM, first compound 0.316 µM) 1.15% | viability, T/C (second compound 1 µM, first compound 1 µM) 0.78% | viability, T/C (second compound 1 µM, first compound 3.16 µM) 1% | viability, T/C (second compound 1 µM, first compound 10 µM) 3.71% | viability, T/C (second compound 3.16 µM, first compound 0.0316 µM) 0.44% | viability, T/C (second compound 3.16 µM, first compound 0.1 µM) 1.82% | viability, T/C (second compound 3.16 µM, first compound 0.316 µM) 0.7% | viability, T/C (second compound 3.16 µM, first compound 1 µM) 0.75% | viability, T/C (second compound 3.16 µM, first compound 3.16 µM) 0.83% | viability, T/C (second compound 3.16 µM, first compound 10 µM) 2.13% | viability, T/C (second compound 10 µM, first compound 0.0316 µM) 0.31% | viability, T/C (second compound 10 µM, first compound 0.1 µM) 0.35% | viability, T/C (second compound 10 µM, first compound 0.316 µM) 0.36% | viability, T/C (second compound 10 µM, first compound 1 µM) 0.46% | viability, T/C (second compound 10 µM, first compound 3.16 µM) 2.05% | viability, T/C (second compound 10 µM, first compound 10 µM) 0.94%
> 10 µM: IC50 (curve of first compound, second compound 0.0316 µM) | IC50 (curve of first compound, second compound 0.1 µM)
